Assay results taken from PubChem BioAssay AID977622 (Broad Institute, 2014).
Records with an inconclusive call do not appear. Active and inactive are the calls of the source.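 Rule for the calls: active = Green signal of the normal strain falls at least twice as much as red signal of the resistant mutant, with overall culture growth loss under a set limit; inconclusive = no clear call, values can overlap the other calls; inactive = the rest.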

Experiments:
[1] = system: E. coli h38 humanized mutant ribosome RFP fluorescence, mixed culture, 24 h; assay: growth inhibition of wild-type GFP E. coli, dose response, h38 mutant RFP, cherry-pick (AID 977622); details: measured here: h38 humanized mutant RFP strain
[2] = system: E. coli WT ribosome GFP fluorescence, mixed culture, 24 h; assay: as above
[3] = E. coli mixed culture, 24 h, measured here: total growth OD600

Row | Compound | AC50 [1] [µM] | AC50 [2] | AC50 [2, 3] [µM]
1 | O=C(Nc1ccncc1)c1ccc(S(=O)(=O)Nc2ccccc2)cc1 | > 100 | > 100 µM (inactive) | –
2 | O=C(c1cccs1)c1c[nH]cc1-c1ccccc1 | > 100 | – | > 100
3 | O=C(Nc1cccc(Cl)c1)c1ccc(S(=O)(=O)NCC2CCCO2)cc1 (stereo not drawn) | 43.4 | > 100 µM (inactive) | 52.5
4 | Cc1ccc(C(=O)Nc2cccc3[nH]c(C(F)(F)F)nc23)cc1 | > 100 | – | > 100
5 | COc1ccc(CN2C(=O)NC(C)(c3ccc(C)cc3)C2=O)cc1F (stereo not drawn) | > 100 | > 100 µM (inactive) | –
6 | NS(=O)(=O)c1cccc(NC(=O)CSc2nc3ccccc3n2-c2ccccc2)c1 | > 100 | > 100 µM (inactive) | 36
7 | CS(=O)(=O)c1ccc(Cl)c(NC(=O)CSc2nncn2-c2ccccc2)c1 | > 100 | > 100 µM (inactive) | –
8 | COC(=O)c1c(-c2ccc(OC)cc2)sc2cc(OC)c(OC)cc12 | > 100 | > 100 µM (inactive) | 45.8
9 | O=C(c1cccc2ccccc12)C1CCCN(C(=O)CCc2cnccn2)C1 (stereo not drawn) | > 100 | – | > 100
10 | N#Cc1cccc(-c2ccc3c(c2)[C@@H]2[C@@H](CCN2S(=O)(=O)c2cccc(F)c2)[C@H](CO)N3)c1 | > 100 | > 100 µM (inactive) | –
11 | O=S(=O)(Nc1ccc(-c2cnco2)cc1)c1ccccc1 | > 100 | > 100 µM (inactive) | –
12 | CCC1(CC)NC(=O)N(CC(=O)N2N=C(c3ccc(Cl)cc3)CC2c2ccco2)C1=O (stereo not drawn) | > 100 | – | > 100
13 | CCCc1c(C(=O)Nc2ccc(OC)cc2)cnn1-c1ccccc1 | 9.68 | > 100 µM (inactive) | –
14 | COc1ccc(OC)c(C(=O)COC(=O)c2ccc([N+](=O)[O-])o2)c1 | > 100 | > 100 µM (inactive) | > 100
15 | C=C1c2cc3c(cc2NC(=S)N1Cc1ccccc1)OCO3 | > 100 | – | > 100
16 | O=C(NCc1ccccc1)C1C(=O)Nc2ccccc2C(=O)N1c1ccc2c(c1)OCCO2 (stereo not drawn) | > 100 | > 100 µM (inactive) | –
17 | Cc1ccccc1-c1cc(C(=O)NCc2cccs2)n(CC2CC(c3cccnc3)=NO2)n1 (stereo not drawn) | > 100 | > 100 µM (inactive) | –
18 | COc1ccccc1NC(=O)COC(=O)Cc1c[nH]c2ccccc12 | > 100 | – | > 100
19 | Nc1c(Cl)cc(C2=NCCn3nc4ccccc4c32)cc1Cl | 50.5 | > 100 µM (inactive) | 41.6
20 | C[C@@H]1CCCCO[C@H](CN(C)CC2CC2)[C@H](C)CN([C@@H](C)CO)C(=O)c2cc(NC(=O)Nc3cccc4ccccc34)ccc2O1 | 43.2 | > 52 µM (inactive) | 32.4

Row | Compound | AC50 [1] [µM] | AC50 [2] | AC50 [2, 3] [µM]
21 | O=C(O)CSc1nnc(-c2ccc(Cl)cc2Cl)n1-c1ccc(Br)cc1 | > 100 | > 100 µM (inactive) | > 100
22 | COc1ccc(NC(=O)Nc2cccc3c2O[C@@H](CN(C)S(=O)(=O)c2ccc(Cl)cc2)[C@H](C)CN([C@H](C)CO)C3=O)cc1 | > 100 | > 100 µM (inactive) | –
23 | C=CCn1c(C)cc(C(=O)CSc2nnc(C3CC3)n2C2CC2)c1C | > 100 | – | > 100
24 | NC(=O)c1cccnc1Oc1ccc(Cl)cc1Cl | > 100 | > 100 µM (inactive) | –
25 | CN(C)c1ccc(-c2nnn(Cc3ccccc3Br)n2)cc1 | > 100 | > 100 µM (inactive) | –
26 | CC(C)n1nnnc1C1c2ccccc2C(=O)N1CCOc1ccccc1 (stereo not drawn) | 3.86 | – | > 100
27 | CCc1cc2c(nc1CC)CCCN2Cc1ccc(Br)cc1 | > 100 | > 100 µM (inactive) | –
28 | COc1ccc2oc(C)c(C(=O)c3ccccc3)c2c1 | > 100 | > 100 µM (inactive) | 48.5
29 | O=C1OC[C@@H]2CCCN2C(=O)[C@@H](CC(=O)N(CCO)Cc2ccccc2)C/C=C\C[C@H]1Cc1ccc(F)cc1 | > 100 | – | > 100
30 | CN(C)S(=O)(=O)N1CCN(c2ccccc2Cl)CC1 | > 100 | – | > 100
31 | COc1ccc(OC)c(S(=O)(=O)Nc2cccc3ccc(O)cc23)c1 | > 100 | > 100 µM (inactive) | > 100
32 | Cc1nc([N+](=O)[O-])c(Br)n1CC(=O)c1ccc(F)cc1 | 4.58 | > 100 µM (inactive) | –
33 | CC(C)(C)S(=O)(=O)Cc1nc(-c2ccc(Cl)c(Cl)c2)cs1 | > 100 | > 100 µM (inactive) | > 100
34 | Cc1cccc(Nc2nc(-c3ccc(F)cc3)cs2)n1 | > 100 | > 100 µM (inactive) | > 100
35 | COc1cccc(NC(=O)C2CCC(CNS(=O)(=O)c3cccs3)CC2)c1 (stereo not drawn) | > 100 | > 100 µM (inactive) | –
36 | CCc1cc2cc(OC)ccc2nc1SCC(=O)Nc1cc(OC)c(OC)cc1C(=O)O | > 100 | > 100 µM (inactive) | 36.3
37 | CCn1cc(Br)c(C(=O)Nc2ccc(C(=O)OC(C)C)cc2)n1 | > 100 | > 100 µM (inactive) | –
38 | COc1ccc(NC(=O)CCS(=O)(=O)c2ccccc2Cl)cc1S(=O)(=O)Nc1ccc(Cl)cc1 | > 100 | > 100 µM (inactive) | > 100
39 | O=S1(=O)N[C@H](Cc2ccccc2)COc2cccc(N3CCC[C@H]3CO)c21 | > 100 | > 100 µM (inactive) | –
40 | CCc1cccc(NC(=O)CN(C)S(=O)(=O)c2cccc3cccnc23)c1 | > 100 | > 100 µM (inactive) | –
